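Each compound was tested at five concentrations against cells in 96-well plates for 48 hours. The concentration for 50% growth inhibition is given as GI50.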 Calls of active or inactive are those of the source. No stated cut-off is given here; in the data, active = GI50 up to about 1.1 µM and inactive = higher.
Columns and labels:
Assay in all cases: inhibition of tumour cell growth, NCI panel, 48 h
ACHN = tested on: ACHN
CAKI-1 = tested on: CAKI-1
HL-60 = tested on: HL-60
K562 = tested on: K562
M14 = tested on: M14
MOLT-4 = tested on: MOLT-4
Malme-3M = tested on: Malme-3M
NCI-H460 = tested on: NCI-H460
NCI-H522 = tested on: NCI-H522
OVCAR-4 = tested on: OVCAR-4
OVCAR-5 = tested on: OVCAR-5
SF-295 = tested on: SF-295
SK-MEL-2 = tested on: SK-MEL-2
SK-MEL-5 = tested on: SK-MEL-5
SNB-19 = tested on: SNB-19
SW-620 = tested on: SW-620
UO-31 = tested on: UO-31
HCT-116 = tested on: HCT-116

Compound	GI50 (ACHN)	GI50 (CAKI-1)	GI50 (HL-60)	GI50 (K562)	GI50 (M14)	GI50 (MOLT-4)	GI50 (Malme-3M)	GI50 (NCI-H460)	GI50 (NCI-H522)	GI50 (OVCAR-4)	GI50 (OVCAR-5)	GI50 (SF-295)	GI50 (SK-MEL-2)	GI50 (SK-MEL-5)	GI50 (SNB-19)	GI50 (SW-620)	GI50 (UO-31)	GI50 (HCT-116)
Cn1c2c([N+](=O)[O-])cccc2c(=O)c2c(O)cc3c(c21)C=CC(C)(C)O3	43.5 µM (inactive)	18.7 µM (inactive)	16.6 µM (inactive)	39.3 µM (inactive)	86.7 µM (inactive)	42.9 µM (inactive)	40.2 µM (inactive)	36.6 µM (inactive)	11.2 µM (inactive)	20.8 µM (inactive)	35.7 µM (inactive)	24.1 µM (inactive)	35.9 µM (inactive)	28.3 µM (inactive)	41.7 µM (inactive)	69.3 µM (inactive)	40.6 µM (inactive)	–
COc1ccc(CC(=O)NCCc2ccc(OC)c(OC)c2OC)cc1	> 100 µM (inactive)	–	–	> 100 µM (inactive)	> 100 µM (inactive)	> 100 µM (inactive)	> 100 µM (inactive)	> 100 µM (inactive)	> 100 µM (inactive)	–	> 100 µM (inactive)	> 100 µM (inactive)	> 100 µM (inactive)	> 100 µM (inactive)	> 100 µM (inactive)	> 100 µM (inactive)	> 100 µM (inactive)	> 100 µM (inactive)
CCN(CC)CC(=N)N(CC)c1ccccc1	> 100 µM (inactive)	> 100 µM (inactive)	> 100 µM (inactive)	> 100 µM (inactive)	> 100 µM (inactive)	> 100 µM (inactive)	> 100 µM (inactive)	> 100 µM (inactive)	> 100 µM (inactive)	> 100 µM (inactive)	> 100 µM (inactive)	> 100 µM (inactive)	> 100 µM (inactive)	> 100 µM (inactive)	> 100 µM (inactive)	> 100 µM (inactive)	> 100 µM (inactive)	> 100 µM (inactive)
CN(C)[C@@H]1C(O)=C(C(=O)NCNCCCC(=O)O)C(=O)[C@@]2(O)C(O)=C3C(=O)c4c(O)cccc4[C@@](C)(O)[C@H]3C[C@@H]12	> 100 µM (inactive)	> 100 µM (inactive)	> 100 µM (inactive)	> 100 µM (inactive)	> 100 µM (inactive)	> 100 µM (inactive)	–	> 100 µM (inactive)	> 100 µM (inactive)	> 100 µM (inactive)	> 100 µM (inactive)	> 100 µM (inactive)	> 100 µM (inactive)	> 100 µM (inactive)	> 100 µM (inactive)	> 100 µM (inactive)	> 100 µM (inactive)	> 100 µM (inactive)
OC12c3ccccc3C1CCCCCC21OCCCO1 (stereo not given)	> 100 µM (inactive)	> 100 µM (inactive)	11.4 µM (inactive)	> 100 µM (inactive)	> 100 µM (inactive)	> 100 µM (inactive)	> 100 µM (inactive)	> 100 µM (inactive)	> 100 µM (inactive)	> 100 µM (inactive)	> 100 µM (inactive)	> 100 µM (inactive)	> 100 µM (inactive)	> 100 µM (inactive)	> 100 µM (inactive)	> 100 µM (inactive)	> 100 µM (inactive)	> 100 µM (inactive)
COc1ccc(-c2onc(-c3c(C)cc(C)cc3C)c2C2=NCCCN2)cc1	64.1 µM (inactive)	13.6 µM (inactive)	15.1 µM (inactive)	28.8 µM (inactive)	21.1 µM (inactive)	41 µM (inactive)	41.9 µM (inactive)	32.1 µM (inactive)	14.3 µM (inactive)	49.9 µM (inactive)	> 100 µM (inactive)	22.8 µM (inactive)	36.1 µM (inactive)	23 µM (inactive)	35.1 µM (inactive)	46.2 µM (inactive)	21.1 µM (inactive)	28 µM (inactive)
O=S1(=O)OCCOS(=O)(=O)C1(Cl)Cl	–	47 µM (inactive)	42 µM (inactive)	> 100 µM (inactive)	> 100 µM (inactive)	42.2 µM (inactive)	> 100 µM (inactive)	–	> 100 µM (inactive)	> 100 µM (inactive)	–	46 µM (inactive)	> 100 µM (inactive)	74.8 µM (inactive)	91.4 µM (inactive)	> 100 µM (inactive)	99.8 µM (inactive)	> 100 µM (inactive)
NC(=S)N/C=C1\C(=O)Oc2ccccc2C1=O	28.9 µM (inactive)	20.7 µM (inactive)	> 100 µM (inactive)	> 100 µM (inactive)	48.5 µM (inactive)	> 100 µM (inactive)	32.7 µM (inactive)	> 100 µM (inactive)	69.2 µM (inactive)	> 100 µM (inactive)	> 100 µM (inactive)	> 100 µM (inactive)	22.6 µM (inactive)	42.3 µM (inactive)	68.5 µM (inactive)	75.5 µM (inactive)	27.5 µM (inactive)	53.5 µM (inactive)
COc1ccc(NC(=O)CCc2cc(C(C)(C)C)[nH]n2)cc1	> 100 µM (inactive)	> 100 µM (inactive)	> 100 µM (inactive)	> 100 µM (inactive)	> 100 µM (inactive)	> 100 µM (inactive)	> 100 µM (inactive)	> 100 µM (inactive)	74 µM (inactive)	–	> 100 µM (inactive)	> 100 µM (inactive)	> 100 µM (inactive)	> 100 µM (inactive)	> 100 µM (inactive)	> 100 µM (inactive)	> 100 µM (inactive)	> 100 µM (inactive)
CSC(=N)NNC(=O)CCC(=O)Nc1ccccc1C(F)(F)F	> 100 µM (inactive)	> 100 µM (inactive)	–	> 100 µM (inactive)	> 100 µM (inactive)	> 100 µM (inactive)	> 100 µM (inactive)	> 100 µM (inactive)	> 100 µM (inactive)	> 100 µM (inactive)	> 100 µM (inactive)	> 100 µM (inactive)	> 100 µM (inactive)	> 100 µM (inactive)	> 100 µM (inactive)	> 82.2 µM (inactive)	> 100 µM (inactive)	> 100 µM (inactive)
O=C1[C@@H]2C(c3ccccc3[N+](=O)[O-])=NO[C@@H]2C(=O)N1c1ccc(Cc2ccc(N3C(=O)[C@H]4C(c5ccccc5[N+](=O)[O-])=NO[C@H]4C3=O)cc2)cc1	> 100 µM (inactive)	> 100 µM (inactive)	–	> 100 µM (inactive)	> 100 µM (inactive)	> 100 µM (inactive)	> 100 µM (inactive)	> 100 µM (inactive)	> 100 µM (inactive)	> 100 µM (inactive)	> 100 µM (inactive)	> 100 µM (inactive)	–	> 100 µM (inactive)	> 100 µM (inactive)	> 100 µM (inactive)	> 100 µM (inactive)	> 100 µM (inactive)
Cc1cc(N(CCC#N)CCC#N)ccc1/C=C1N=C(/C=C/c2ccccc2)OC(=O)N\1	> 100 µM (inactive)	> 100 µM (inactive)	> 100 µM (inactive)	> 100 µM (inactive)	> 100 µM (inactive)	> 100 µM (inactive)	> 100 µM (inactive)	> 100 µM (inactive)	> 100 µM (inactive)	–	> 100 µM (inactive)	7.41 µM (inactive)	> 100 µM (inactive)	> 100 µM (inactive)	> 100 µM (inactive)	> 100 µM (inactive)	> 100 µM (inactive)	> 100 µM (inactive)
COc1c2c(c(O)c3c4c(c(C)cc13)C1OC3(C(OC)OC5CC(C)(O)C(OC6CC(C)(O)C(O)C(C)O6)C(C)O5)OC1C(OC)(O4)C31CO1)C(=O)C(O)CC2OC1CC(C)(O)C(OC(C)=O)C(C)O1 (stereo not given)	< 0.0112 µM (active)	0.052 µM (active)	< 0.01 µM (active)	< 0.01 µM (active)	< 0.01 µM (active)	< 0.01 µM (active)	< 0.01 µM (active)	< 0.01 µM (active)	< 0.01 µM (active)	< 0.01 µM (active)	< 0.01 µM (active)	< 0.01 µM (active)	< 0.01 µM (active)	< 0.01 µM (active)	< 0.01 µM (active)	< 0.01 µM (active)	0.0356 µM (active)	< 0.01 µM (active)
COc1cc(/C=N\O[Si](C)(C)C(C)(C)C)ccc1O[Si](C)(C)C(C)(C)C	51.4 µM (inactive)	> 100 µM (inactive)	37.8 µM (inactive)	32.5 µM (inactive)	92.5 µM (inactive)	37.8 µM (inactive)	> 100 µM (inactive)	> 100 µM (inactive)	–	> 100 µM (inactive)	33.7 µM (inactive)	78.5 µM (inactive)	88.9 µM (inactive)	> 100 µM (inactive)	76.9 µM (inactive)	> 100 µM (inactive)	> 100 µM (inactive)	32.4 µM (inactive)
NC(=O)c1coc(C2OC(CO)C(O)C2O)n1 (stereo not given)	> 100 µM (inactive)	> 10 µM (inactive)	> 100 µM (inactive)	> 100 µM (inactive)	> 100 µM (inactive)	> 100 µM (inactive)	> 100 µM (inactive)	> 100 µM (inactive)	> 100 µM (inactive)	> 100 µM (inactive)	> 100 µM (inactive)	–	> 100 µM (inactive)	–	> 100 µM (inactive)	> 100 µM (inactive)	> 100 µM (inactive)	> 100 µM (inactive)
COc1ccc(-c2nc(N)nc(-c3cc(C)ccc3O)c2Cl)cc1	47.2 µM (inactive)	91.4 µM (inactive)	> 100 µM (inactive)	> 100 µM (inactive)	84.1 µM (inactive)	> 100 µM (inactive)	31.8 µM (inactive)	38.3 µM (inactive)	26.2 µM (inactive)	11.3 µM (inactive)	> 100 µM (inactive)	60.1 µM (inactive)	–	–	32.9 µM (inactive)	> 100 µM (inactive)	26.7 µM (inactive)	39.5 µM (inactive)

From ChEMBL document CHEMBL1201862, “PubChem BioAssay data set” (2004)
